Literature values as cited in US20100286080A1, “AQUEOUS COMPOSITION COMPRISING CHITOSAN AND AN ACIDIC DRUG” (The Jordanian Pharmaceutical Manufacturing Co., priority 2007, published 2010).

Key:
[1] = single 200-mg oral dose, fasting subjects

Solubility in water: practically insoluble in water
Time of peak plasma levels after administration [1]: about 1 hr
Compound: CC(C)Cc1ccc(C(C)C(=O)O)cc1 (centres unmarked) [Ibuprofen]
